Data as given in patent US20040121398A1 (priority 2000, published 2004).

Columns and labels:
B10 cells = assay type: cell-based, human
VTII and Bcl-2 = assay: Far Western blotting of VTII/Bcl-2 complex formation (B10 cell extract, biotinylated VTII); assay type: binding, human; details: extract of Bcl-2-expressing B10 cells, biotinylated VTII, in the presence of NWGRI

## NWGRI
B10 cells
  induction of apoptotic cell death by VTII: suppressed
VTII and Bcl-2
  complex formation of VTII and Bcl-2: interrupted the complex formation of VTII and Bcl-2 in a dose dependent manner
